# According to US20240382401A1, “COMPOSITIONS” (JVS Products Limited, priority 2020, published 2024):
# Test system: tissue engineered human skin model (EpiDerm™)
# Assay: In vitro skin irritation test, EpiDerm (EPI-200-SIT), MTT assay
# Type: cell-based
# Settings: 60 minutes exposure, relative to negative control, irritant if below 50%
# Procedure: A 24 tissue insert EpiDerm™ skin irritation kit was purchased from MatTek In Vitro Life Science Laboratories, Slovakia (EPI-200-SIT). On receipt of the kit, the tissues were visually assessed for integrity and conditioned by transferring into sterile 6 well plates, adding 0.9 ml medium and incubating for 60 minutes at 37° C., 5% CO2, 95% RH. After 60 minutes, the tissues were removed, placed in fresh medium and further incubated for 18 hours.
# To test for irritancy potential, 30 μl of liquid formulation, plus positive and negative control or 25 mg semisolid (gel/moisturiser) were applied to surface of each test tissue insert. After dosing the inserts were incubated for 35 minutes (37° C., 5% CO2, 95% RH). […]
# Once extraction was complete, 200 μl samples from each tissue were added to a 96 well plate in duplicate for the MTT assay of cell viability, and 200 μl isopropanol to 4 wells as blanks. The optical density of each well was read using a spectrophotometric plate reader at 570 nm without using a reference filter.
# The mean OD (optical density) from the blank wells was subtracted from the OD of each well. The mean OD from each duplicate was then obtained and the individual relative tissue viability for each tissue treated with a test substance (TS), the positive control (PC) and the negative control (NC) calculated according to the following formulas: […]
structure (smiles),measurement,value
CCCCCCCCCCCCOS(=O)(=O)[O-].[Na+] [5% SDS],Mean RV % (relative viability),9.0%
